Drawing on patent US8193224B2, “Medicinal composition for prevention or treatment of parasitic protozoan infection” (Fujifilm Corporation, priority 2004, dated 2012), this text covers EC50 and Selective toxicity for one compound.

Assay type in all cases: cell-based
In series [1] the test system is Leishmania donovani (MHOM/ET/67/L82 strain). As to the kind of experiment: Leishmania protozoa growth inhibition screening test. To be noted: Leishmania donovani; MHOM/ET/67/L82 strain amastigote, pH 5.4, 72 hours, Alamar Blue; read-out: 50% growth inhibition concentration Leishmania donovani. The protocol: In the present example, Leishmania donovani (MHOM/ET/67/L82 strain) was used. Protozoa was subcultured in Syrian Golden hamster, from which an amastigote was obtained. In the experiment, SM medium supplemented with 10% heat-treated bovine fetal serum was used, which was adjusted to pH 5.4, and cultured in an atmosphere of 5% CO2 concentration, at 37° C.
The compounds of the present invention to be used in the present test and the positive target drug (miltefosine) were dissolved in DMSO to make a test solution of a predetermined concentration. After adding a medium containing a predetermined number of protozoa to wells of a 96-well culture plate and pre-treating, concentration of the amastigote was measured with CASY cell analysis system (Scharfe, Germany). Then, test solution containing a drug of a predetermined concentration or a drug-free DMSO was added. Test solutions were taken by duplicates. After culturing the culture plate for 72 hours in an incubator, growth inhibition activity was tested. Test was conducted as follows.
10 μL of Alamar Blue aqueous solution was added to each well, and the resultant was further cultured for 2 hours. Next, the culture plate was placed on a fluorescent micro-plate reader (Spectramax Gemeni XS; US Molecular Device), radiated at an excited wavelength of 536 nm. Fluorescent intensity was measured at 588 nm, and infection rate of leishmania protozoa of the test solution added-group and control was calculated, to obtain a 50% growth inhibition concentration (EC50). Growth inhibition rate (%)={1−(b−a)/(c−a)}×100 a: early infection rate b: infection rate when test solution was added c: infection rate of the control
(Resazurin is reduced to fluorescent resorufin, in cell work by metabolically active cells.)

The subject of series [2] is Trypanosoma cruzi (Tulahuen C2C4 strain). As to the kind of experiment: American trypanosome protozoa growth inhibition screening test. The protocol: In the present example, amastigote and trypomastigote infected with rat L6 cells of protozoa of Trypanosoma cruzi (Tulahuen C2C4 strain) were used. As medium used in the test, RPMI 1640 medium containing L6 cells was supplemented so that L-glutamine (200 mM) becomes 1%, fetal bovine serum becomes 10%, which was cultured under CO2 concentration 5%, at 37° C.
The compounds of the present invention to be used in the test and the positive target agent (benznidazole) were dissolved in DMSO to make a test solution of a predetermined concentration. A medium containing 5×10^3 protozoa was added to wells of a 96-well culture plate, and pre-cultured for 48 hours. After replacing the medium, test solution containing drug of a predetermined concentration or a drug-free DMSO was added. Test solutions were taken by duplicates. After culturing the culture plate in an incubator for 96 hours, growth inhibition activity was tested. Test was conducted as follows.
50 μL of CPRG/Nonidet was added to each well, and allowed to rest for 2 to 6 hours. Next, the culture plate was placed on a fluorescent micro-plate reader, and the absorbance was measured at 540 nm. Growth inhibition rate was calculated with the following formula based on the protozoan infection rate which was obtained by calculating trypanosome infection rate of the test solution added group and control group, to obtain a 50% growth inhibition concentration (EC50). Growth inhibition rate (%)={1−(b−a)/(c−a)}×100 a: early infection rate b: infection rate when test solution was added c: infection rate of the control

A short description of series [3]: Growth inhibition test of rat L6 cells. Conditions: L6 cells (rat skeletal myoblast), Alamar Blue (Table 3), read-out: 50% growth inhibiting concentration Cytotoxicity L6. The protocol:
Rat derived-L6 cells (rat skeletal myoblast cell) were used. As medium, RPMI1640 medium was supplemented so that L-glutamin (200 mM) is 1%, and fetal bovine serum 10%, and the medium was cultured under CO2 concentration 5%, at 37° C. The compounds of the present invention and the target drugs to be used in the test were dissolved in DMSO, to make a test solution of a predetermined concentration. Pre-culture was conducted and medium containing cells which have entered the logarithmic growth phase was taken to wells of a 96-well culture plate. Then, a test solution containing drug of a predetermined concentration or a drug-free DMSO was added. Test solutions were taken by duplicates. Culture plate was cultured for 72 hours in an incubator, to test the growth inhibition activity. Test was conducted as follows.
10 μl of Alamar Blue aqueous solution was added to each well, and the resultant was further cultured for 2 hours. Next, the culture plate was placed on a fluorescent micro-plate reader (Spectramax Gemeni XS; US Molecular Device), radiated at an excited wavelength of 536 nm. Fluorescent intensity was measured at 588 nm, and residual rate of L6 cells of the test solution added group, and that of the control was calculated. Based on the cell residual rate obtained in the above, growth inhibition rate to L6 cells was calculated, to obtain a 50% growth inhibition concentration (EC50). Growth inhibition rate (%)={(C−A)/(B−A)}×100 A: primary cell count B: cell count of control, 3 days after C: cell count of wells added with a sample, 3 days after […]

Series [4] relates to Trypanosoma brucei rhodensiense (STIB 900 strain). As to the kind of experiment: African trypanosome protozoa growth inhibition screening test. To be noted: chemotherapy index = EC50 rat L6 cells / EC50 African trypanosome protozoa.
Series [5] shares this test system. The series is described as above. Conditions: Trypanosoma brucei, STIB900; STIB 900 strain, blood stream form, 72 hours, Alamar Blue; read-out: 50% growth inhibiting concentration Trypanosoma brucei rhod. The protocol:
In the present example, protozoa of Trypanosoma brucei rhodensiense (STIB 900 strain), a trypamastigote living in blood stream, was used. The medium used in the experiment was a MEM medium which was sterilized with a filter and supplemented with 25 mM N-2-hydroxyethylpiperazine-2-ethansulfonic acid […]), 1 g/L glucose, 1% MEM non-essential amino acid, 0.2 mM 2-mercaptoethanol, 2 mM sodium pyruvate, 0.1 mM hypoxanthine, and 15% heat-treated horse serum. The protozoa was cultured in an atmosphere of CO2 concentration 5%, at a temperature of 37° C.
The compounds of the present invention to be used in the present test and the positive target drug (melarsoprol) were dissolved in DMSO to make a test solution of a predetermined concentration. A medium containing 8×10^3 protozoa, and a test solution containing a drug of a predetermined concentration or a drug-free DMSO were added to wells of a 96-well culture plate, and subsequently, medium was added so that the amount in each well becomes 100 μL. Test solutions were taken by duplicates. After culturing the culture plate for 72 hours in an incubator, growth inhibition activity was tested. Test was conducted as follows. 10 μL of Alamar Blue aqueous solution was added to each well, and the resultant was further cultured for 2 hours. Next, the culture plate was placed on a fluorescent micro-plate reader (Spectramax Gemeni XS; US Molecular Device), radiated at an excited wavelength of 536 nm. Fluorescent intensity was measured at 588 nm, to calculate the trypanosome protozoa infected rate of the test solution added-group, and of the control group. From the protozoan infection rate obtained in the above, growth inhibition rate was calculated with the following formula, to obtain a 50% growth inhibition concentration (EC50). Growth inhibition rate (%)={1−(b−a)/(c−a)}×100 a: early infection rate b: infection rate when test solution was added c: infection rate of the control

In series [6] the test system is Leishmania donovani (MHOM/ET/67/L82 strain). As to the kind of experiment: Leishmania protozoa growth inhibition screening test. To be noted: chemotherapy index = EC50 rat L6 cells / EC50 leishmania protozoa.

With `CCC[n+]1c(/C=c2\s/c(=C\C=C3/SCCN3CC)c(=O)n2CC)sc2c3ccccc3ccc21` [A-16], the EC50 was 8 nM in series [1]; 90 nM in series [2] (Trypanosoma cruzi, Tulahuen C2C4 strain in rat L6 cells, 96 hours, CPRG/Nonidet, read-out: 50% growth inhibition concentration Trypanosoma cruzi); 30 nM in series [5]. Moreover, the Selective toxicity in series [2] (chemotherapy index = EC50 rat L6 cells / EC50 American trypanosome protozoa) is on record as 10; in series [4], 31; in series [6], 120. In addition, in series [3], the EC50 at 72 h worked out at 940 nM.
